Results as given in PubChem BioAssay (NCI).
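Method: 48-hour compound exposure of cells in 96-well plates, five concentrations, linear interpolation of endpoints. TGI: concentration producing complete growth inhibition.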

Columns and labels:
Assay in all cases: DTP human tumour cell line panel, 48 h
786-0 renal = test system: 786-0 renal
A498 renal = test system: A498 renal
A549 NSCLC = test system: A549 NSCLC
ACHN renal = test system: ACHN renal
BT-549 breast = test system: BT-549 breast
CAKI-1 renal = test system: CAKI-1 renal
CCRF-CEM leukemia = test system: CCRF-CEM leukemia
COLO 205 colon = test system: COLO 205 colon
DU-145 prostate = test system: DU-145 prostate
EKVX NSCLC = test system: EKVX NSCLC
HCC-2998 colon = test system: HCC-2998 colon
HCT-116 colon = test system: HCT-116 colon
HCT-15 colon = test system: HCT-15 colon
HL-60(TB) leukemia = test system: HL-60(TB) leukemia
HOP-62 NSCLC = test system: HOP-62 NSCLC
HOP-92 NSCLC = test system: HOP-92 NSCLC
HS 578T breast = test system: HS 578T breast
HT29 colon = test system: HT29 colon
IGROV1 ovarian = test system: IGROV1 ovarian
K-562 leukemia = test system: K-562 leukemia
KM12 colon = test system: KM12 colon
LOX IMVI melanoma = test system: LOX IMVI melanoma
M14 melanoma = test system: M14 melanoma
MALME-3M melanoma = test system: MALME-3M melanoma
MCF7 breast = test system: MCF7 breast
MDA-MB-231 breast = test system: MDA-MB-231 breast
MDA-MB-435 = test system: MDA-MB-435
MDA-N = test system: MDA-N
MOLT-4 leukemia = test system: MOLT-4 leukemia
NCI-H226 lung = test system: NCI-H226 lung
NCI-H23 lung = test system: NCI-H23 lung
NCI-H460 lung = test system: NCI-H460 lung
NCI-H522 lung = test system: NCI-H522 lung
NCI/ADR-RES ovarian = test system: NCI/ADR-RES ovarian
OVCAR-3 ovarian = test system: OVCAR-3 ovarian
OVCAR-4 ovarian = test system: OVCAR-4 ovarian
OVCAR-5 ovarian = test system: OVCAR-5 ovarian
OVCAR-8 ovarian = test system: OVCAR-8 ovarian
PC-3 prostate = test system: PC-3 prostate
RPMI-8226 leukemia = test system: RPMI-8226 leukemia
RXF 393 renal = test system: RXF 393 renal
SF-268 CNS = test system: SF-268 CNS
SF-295 CNS = test system: SF-295 CNS
SF-539 CNS = test system: SF-539 CNS
SK-MEL-2 melanoma = test system: SK-MEL-2 melanoma
SK-MEL-28 melanoma = test system: SK-MEL-28 melanoma
SK-MEL-5 melanoma = test system: SK-MEL-5 melanoma
SK-OV-3 ovarian = test system: SK-OV-3 ovarian
SN12C renal = test system: SN12C renal
SNB-19 CNS = test system: SNB-19 CNS
SNB-75 CNS = test system: SNB-75 CNS
SR leukemia = test system: SR leukemia
T-47D breast = test system: T-47D breast
TK-10 renal = test system: TK-10 renal
UACC-257 melanoma = test system: UACC-257 melanoma
UACC-62 melanoma = test system: UACC-62 melanoma
UO-31 renal = test system: UO-31 renal

With `COc1cc2cc(C(=O)N3CC(CCl)c4ccc(NCCN)cc43)[nH]c2c(OC)c1OC` (configuration not stated) the TGI (786-0 renal) was 1.12 µM, the TGI (A498 renal) was 0.339 µM and the TGI (A549 NSCLC) was 12.5 µM. It also gave a TGI (ACHN renal) of 0.768 µM, a TGI (BT-549 breast) of 1.94 µM and a TGI (CAKI-1 renal) of 1 µM. The TGI (CCRF-CEM leukemia) was 2.24 µM, the TGI (COLO 205 colon) was 2.55 µM and the TGI (DU-145 prostate) was 6.2 µM. The TGI (EKVX NSCLC) was 6.1 µM, the TGI (HCC-2998 colon) was 0.709 µM and the TGI (HCT-116 colon) was > 32.7 µM. For the same molecule, the TGI (HCT-15 colon) was 4.33 µM, the TGI (HL-60(TB) leukemia) was 0.226 µM and the TGI (HOP-62 NSCLC) was 0.645 µM. It also gave a TGI (HOP-92 NSCLC) of 4 µM, a TGI (HS 578T breast) of 3.37 µM and a TGI (HT29 colon) of 11.1 µM. It also gave a TGI (IGROV1 ovarian) of 0.375 µM, a TGI (K-562 leukemia) of 0.572 µM and a TGI (KM12 colon) of 1.07 µM. For the same molecule, the TGI (LOX IMVI melanoma) was 0.881 µM, the TGI (M14 melanoma) was 0.716 µM and the TGI (MALME-3M melanoma) was 0.391 µM. It also gave a TGI (MCF7 breast) of 3.45 µM, a TGI (MDA-MB-231 breast) of 1.9 µM and a TGI (MDA-MB-435) of 0.706 µM. The TGI (MDA-N) was 0.432 µM, the TGI (MOLT-4 leukemia) was 0.356 µM and the TGI (NCI-H226 lung) was 1.76 µM. It also gave a TGI (NCI-H23 lung) of 1.23 µM, a TGI (NCI-H460 lung) of 4 µM and a TGI (NCI-H522 lung) of 0.542 µM. It also gave a TGI (NCI/ADR-RES ovarian) of 1.54 µM, a TGI (OVCAR-3 ovarian) of 0.579 µM and a TGI (OVCAR-4 ovarian) of 3.06 µM. The TGI (OVCAR-5 ovarian) was 6.03 µM, the TGI (OVCAR-8 ovarian) was 2.77 µM and the TGI (PC-3 prostate) was 2.07 µM. For the same molecule, the TGI (RPMI-8226 leukemia) was 1.17 µM, the TGI (RXF 393 renal) was 0.327 µM and the TGI (SF-268 CNS) was 1.29 µM. It also gave a TGI (SF-295 CNS) of 1.44 µM, a TGI (SF-539 CNS) of 1.41 µM and a TGI (SK-MEL-2 melanoma) of 0.408 µM. For the same molecule, the TGI (SK-MEL-28 melanoma) was 1.4 µM, the TGI (SK-MEL-5 melanoma) was 0.263 µM and the TGI (SK-OV-3 ovarian) was 1.16 µM. It also gave a TGI (SN12C renal) of 2.42 µM, a TGI (SNB-19 CNS) of 3.13 µM and a TGI (SNB-75 CNS) of 0.571 µM. For the same molecule, the TGI (SR leukemia) was 38.8 µM, the TGI (T-47D breast) was 5.19 µM and the TGI (TK-10 renal) was 6.08 µM. The TGI (UACC-257 melanoma) was 0.637 µM, the TGI (UACC-62 melanoma) was 0.35 µM and the TGI (UO-31 renal) was 0.382 µM.
